Laboratory results: patent US10844038B2, “1,2-dithiolane compounds useful in neuroprotection, autoimmune and cancer diseases and conditions” (SABILA BIOSCIENCES LLC, priority 2016, dated 2020)

Legend:
[1] = biological target: BTK (Homo sapiens (Human), UniProt Q06187); assay: Radioisotope filter binding assay; format: biochemical; conditions: read-out: IC50 Activity Levels Against Representative TEC Family Kinases: BTK
Method: (§1) 3. Radioisotope Filter Binding Assay:
(§2) In this assay format, it directly detects the true product without the use of modified substrates or coupling enzymes (Uitdehaag, J. C., et al. Br. J. Pharmacol. 2012, 166, 858-876; Hastie, C. J., et al. Nat. Protoc. 2006, 1, 968-971) according to equation 1. Substrate+[γ−^33P]−ATP→^33P-Substrate+ADP eq 1
(§3) The protocol calls for test compound of the invention to be incubated with kinase, substrate, cofactors, and radio-isotope-labeled ATP (^33P-gamma-ATP). The reaction mixtures are then spotted onto filter papers which bind the radioisotope labeled catalytic product. Unreacted phosphate is removed via washing. The reagents used include base reaction buffer; 20 mM Hepes (pH 7.5), 10 mM MgCl2, 1 mM EGTA, 0.02% Brij35, 0.02 mg/ml BSA, 0.1 mM Na3VO4, 2 mM DTT, 1% DMSO. The reaction procedure include the following steps: (1) prepare indicated substrate in freshly prepared base reaction buffer, (2) deliver any required cofactors to the substrate solution above, (3) deliver indicated kinase into the substrate solution and gently mix, (4) deliver compounds in DMSO into the kinase reaction mixture by Acoustic technology (Echo550; nanoliter range), incubate for 20 minutes at room temperature, (5) deliver ^33P-ATP (specific activity 10 μCi/μL) into the reaction mixture to initiate the reaction, (6) incubate kinase reaction for 2 hours at room temperature, (7) reactions are spotted onto P81 ion exchange paper, (8) detect kinase activity by filter-binding method.

[2] = biological target: FGR (Homo sapiens (Human), UniProt P09769); assay: Radioisotope filter binding assay; format: biochemical; conditions: read-out: IC50 Activity Levels Against SRC Family Kinases: FGR
Method: as §1, §2, §3

[3] = biological target: BLK (Homo sapiens (Human), UniProt P51451); assay: Radioisotope filter binding assay; format: biochemical; conditions: read-out: IC50 Activity Levels Against SRC Family Kinases: BLK
Method: as §1, §2, §3

[4] = biological target: FLT3-ITD; assay: Radioisotope filter binding assay; format: biochemical; conditions: read-out: IC50 Activity Levels Against Type III NRT Kinases: FLT3-ITD
Method: as §1, §2, §3

[5] = biological target: FYN-Y531F (Homo sapiens (Human), UniProt P06241, Y531F); assay: Radioisotope filter binding assay; format: biochemical; conditions: read-out: IC50 Activity Levels Against FYN Mutant: FYN-Y531F
Method: as §1, §2, §3

[6] = biological target: HCK (Homo sapiens (Human), UniProt P08631); assay: Radioisotope filter binding assay; format: biochemical; conditions: read-out: IC50 Activity Levels Against SRC Family Kinases: HCK
Method: as §1, §2, §3

[7] = biological target: LYN (Homo sapiens (Human), UniProt P07948); assay: Radioisotope filter binding assay; format: biochemical; conditions: read-out: IC50 Activity Levels Against SRC Family Kinases: LYN
Method: as §1, §2, §3

[8] = biological target: BRK (Homo sapiens (Human), UniProt Q13882); assay: Radioisotope filter binding assay; format: biochemical; conditions: read-out: IC50 Activity Levels Against FRK Family Kinases: BRK
Method: as §1, §2, §3

[9] = biological target: LCK (Homo sapiens (Human), UniProt P06239); assay: Radioisotope filter binding assay; format: biochemical; conditions: read-out: IC50 Activity Levels Against SRC Family Kinases: LCK
Method: as §1, §2, §3

[10] = biological target: SRC (Homo sapiens (Human), UniProt P12931); assay: Radioisotope filter binding assay; format: biochemical; conditions: read-out: IC50 Activity Levels Against SRC Family Kinases: SRC
Method: as §1, §2, §3

[11] = biological target: FLT3 (Homo sapiens (Human), UniProt P36888); assay: Radioisotope filter binding assay; format: biochemical; conditions: read-out: IC50 Activity Levels Against Type III NRT Kinases: FLT3
Method: as §1, §2, §3

[12] = biological target: T1, YES1 (Homo sapiens (Human), UniProt P07947); assay: Radioisotope filter binding assay; format: biochemical; conditions: read-out: IC50 Activity Levels Against SRC Family Kinases: YES1
Method: as §1, §2, §3

[13] = biological target: FYN (Homo sapiens (Human), UniProt P06241); assay: Radioisotope filter binding assay; format: biochemical; conditions: read-out: IC50 Activity Levels Against SRC Family Kinases: FYN
Method: as §1, §2, §3

[14] = biological target: ARAF (Homo sapiens (Human), UniProt P10398); assay: Radioisotope filter binding assay; format: biochemical; conditions: read-out: IC50 Activity Levels Against MAPK Pathway Kinases: ARAF
Method: as §1, §2, §3

[15] = biological target: CRAP (Homo sapiens (Human), UniProt P04049); assay: Radioisotope filter binding assay; format: biochemical; conditions: read-out: IC50 Activity Levels Against MAPK Pathway Kinases: CRAP
Method: as §1, §2, §3

[16] = biological target: T1, YES1; assay: Kinase binding assay CaPBA; conditions: read-out: IC50 Activity Levels Against FYN isoforms, YES1 and MEK5: YES1
Source text: 4. Kinase Binding Assay CaPBA:

[17] = biological target: Bruton Tyrosine Kinase (BTK) (Homo sapiens (Human), UniProt Q06187); assay: Rabbit reticulocyte lysate assay (KinaseSeeker competition binding); conditions: read-out: IC50 Activity Levels Against Bruton Tyrosine Kinase: BTK
Method: 1. Rabbit Reticulocyte Lysate Assay Design:
KinaseSeeker is a homogeneous competition binding assay where the displacement of an active site dependent probe by an inhibitor is measured by a change in luminescence signal. Luminescence readout translates into a highly sensitive and robust assay with low background and minimal interference from test compounds.
10 mM stock solutions of test compounds were serially diluted in DMSO to make assay stocks. Prior to initiating IC50 determinations, the test compounds were evaluated for false positive against split-luciferase.
Each test compound was screened in duplicate against target kinase at 7 different concentrations. For kinase assays, Cfluc-kinase was translated along with Fos-Nfluc using a cell-free system (rabbit reticulocyte lysate) at 30° C. for 90 min. 24 uL aliquot of this lysate containing either 1 uL of DMSO (for no-inhibitor control) or compound solution in DMSO was incubated for 30 minutes at room temperature followed by 1 hour in presence of a kinase specific probe. 80 uL of luciferin assay reagent was added to each solution and luminescence was immediately measured on a luminometer.
The % Inhibition and % Activity Remaining was calculated using the following equation: % Inhibition=[(ALUControl−ALUSample)/ALUControl]×100 % Activity Remaining=100−% Inhibition
The % Activity was plotted against compound concentration and the IC50 was determined for each compound using a 7-point curve (Jester, B. W.; et. al. J. Am. Chem. Soc. 2010, 132, 11727-11735. Jester, B. W., et. al. J. Med. Chem. 2012, 55, 1526-1537). Biological activity of representative compounds of the disclosure are described in Table 5.

T1 sequence (P07947 whole entry): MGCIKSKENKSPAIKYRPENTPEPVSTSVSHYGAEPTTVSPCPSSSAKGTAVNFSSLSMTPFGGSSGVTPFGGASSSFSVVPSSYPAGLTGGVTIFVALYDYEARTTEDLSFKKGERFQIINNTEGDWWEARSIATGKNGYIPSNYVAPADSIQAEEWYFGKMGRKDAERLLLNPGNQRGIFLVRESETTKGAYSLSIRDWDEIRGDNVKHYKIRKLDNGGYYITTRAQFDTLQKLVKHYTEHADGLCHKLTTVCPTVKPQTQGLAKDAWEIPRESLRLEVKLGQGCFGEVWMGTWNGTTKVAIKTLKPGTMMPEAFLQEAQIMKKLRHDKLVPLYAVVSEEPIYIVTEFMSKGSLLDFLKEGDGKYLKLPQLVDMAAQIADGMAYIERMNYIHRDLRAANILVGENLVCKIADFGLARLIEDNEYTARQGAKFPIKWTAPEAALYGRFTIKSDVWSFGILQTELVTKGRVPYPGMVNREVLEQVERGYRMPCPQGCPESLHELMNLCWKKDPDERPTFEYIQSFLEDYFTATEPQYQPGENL
FLT3, sequence (P36888 27-993): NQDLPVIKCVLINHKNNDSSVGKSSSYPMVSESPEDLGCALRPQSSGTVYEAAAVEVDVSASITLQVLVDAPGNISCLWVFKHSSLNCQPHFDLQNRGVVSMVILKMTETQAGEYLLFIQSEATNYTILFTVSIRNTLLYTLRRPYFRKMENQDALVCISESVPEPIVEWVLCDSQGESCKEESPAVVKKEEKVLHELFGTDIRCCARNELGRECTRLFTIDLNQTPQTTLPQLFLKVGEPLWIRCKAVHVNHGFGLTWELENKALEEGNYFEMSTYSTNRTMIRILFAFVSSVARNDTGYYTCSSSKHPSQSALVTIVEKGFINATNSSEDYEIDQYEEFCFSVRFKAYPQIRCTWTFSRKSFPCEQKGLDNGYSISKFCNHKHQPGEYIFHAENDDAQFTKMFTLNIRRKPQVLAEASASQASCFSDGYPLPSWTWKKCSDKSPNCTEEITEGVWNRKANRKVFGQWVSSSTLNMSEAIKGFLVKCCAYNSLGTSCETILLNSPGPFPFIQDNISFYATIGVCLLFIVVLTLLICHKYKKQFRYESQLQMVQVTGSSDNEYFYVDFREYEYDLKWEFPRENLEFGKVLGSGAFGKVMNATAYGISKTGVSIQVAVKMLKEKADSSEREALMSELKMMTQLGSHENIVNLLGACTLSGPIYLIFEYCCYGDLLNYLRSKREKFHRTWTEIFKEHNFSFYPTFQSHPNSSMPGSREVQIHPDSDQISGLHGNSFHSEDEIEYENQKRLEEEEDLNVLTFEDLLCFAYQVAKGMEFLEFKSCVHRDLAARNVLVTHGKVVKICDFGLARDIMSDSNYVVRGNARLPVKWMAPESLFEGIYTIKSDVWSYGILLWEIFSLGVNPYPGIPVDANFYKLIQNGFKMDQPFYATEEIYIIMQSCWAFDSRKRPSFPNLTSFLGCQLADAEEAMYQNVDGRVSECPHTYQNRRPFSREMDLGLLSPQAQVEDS
CRAP, sequence (P04049 whole entry): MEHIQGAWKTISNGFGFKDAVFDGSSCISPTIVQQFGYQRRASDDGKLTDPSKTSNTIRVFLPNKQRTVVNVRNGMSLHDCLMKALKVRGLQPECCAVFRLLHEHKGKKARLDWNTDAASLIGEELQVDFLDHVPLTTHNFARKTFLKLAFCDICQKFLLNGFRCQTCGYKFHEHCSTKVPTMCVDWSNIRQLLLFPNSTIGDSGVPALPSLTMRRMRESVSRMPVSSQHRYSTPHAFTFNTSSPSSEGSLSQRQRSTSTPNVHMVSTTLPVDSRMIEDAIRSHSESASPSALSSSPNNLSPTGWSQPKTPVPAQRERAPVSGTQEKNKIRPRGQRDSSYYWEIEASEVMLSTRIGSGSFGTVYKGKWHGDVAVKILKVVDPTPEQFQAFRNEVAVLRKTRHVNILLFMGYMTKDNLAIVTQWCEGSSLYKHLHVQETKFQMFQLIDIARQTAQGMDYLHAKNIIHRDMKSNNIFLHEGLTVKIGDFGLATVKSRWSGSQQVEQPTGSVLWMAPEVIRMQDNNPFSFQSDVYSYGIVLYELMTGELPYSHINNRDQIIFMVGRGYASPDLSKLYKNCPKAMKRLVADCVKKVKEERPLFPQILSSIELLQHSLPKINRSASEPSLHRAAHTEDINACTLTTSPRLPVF
SRC, sequence (P12931 whole entry, looked up): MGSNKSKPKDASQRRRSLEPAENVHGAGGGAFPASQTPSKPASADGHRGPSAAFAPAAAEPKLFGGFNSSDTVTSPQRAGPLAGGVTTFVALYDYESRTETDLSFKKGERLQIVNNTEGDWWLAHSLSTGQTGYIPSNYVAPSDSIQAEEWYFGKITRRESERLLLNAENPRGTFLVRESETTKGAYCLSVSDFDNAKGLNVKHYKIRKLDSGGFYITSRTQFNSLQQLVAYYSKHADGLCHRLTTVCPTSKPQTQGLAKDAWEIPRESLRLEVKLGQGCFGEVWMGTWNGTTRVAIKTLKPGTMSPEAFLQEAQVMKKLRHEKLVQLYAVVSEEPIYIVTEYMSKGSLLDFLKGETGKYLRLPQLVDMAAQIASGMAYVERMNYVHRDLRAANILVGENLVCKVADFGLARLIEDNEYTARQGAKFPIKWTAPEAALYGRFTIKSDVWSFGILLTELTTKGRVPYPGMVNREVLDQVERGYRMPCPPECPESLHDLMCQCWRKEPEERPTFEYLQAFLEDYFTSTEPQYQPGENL
BRK, sequence (Q13882 whole entry): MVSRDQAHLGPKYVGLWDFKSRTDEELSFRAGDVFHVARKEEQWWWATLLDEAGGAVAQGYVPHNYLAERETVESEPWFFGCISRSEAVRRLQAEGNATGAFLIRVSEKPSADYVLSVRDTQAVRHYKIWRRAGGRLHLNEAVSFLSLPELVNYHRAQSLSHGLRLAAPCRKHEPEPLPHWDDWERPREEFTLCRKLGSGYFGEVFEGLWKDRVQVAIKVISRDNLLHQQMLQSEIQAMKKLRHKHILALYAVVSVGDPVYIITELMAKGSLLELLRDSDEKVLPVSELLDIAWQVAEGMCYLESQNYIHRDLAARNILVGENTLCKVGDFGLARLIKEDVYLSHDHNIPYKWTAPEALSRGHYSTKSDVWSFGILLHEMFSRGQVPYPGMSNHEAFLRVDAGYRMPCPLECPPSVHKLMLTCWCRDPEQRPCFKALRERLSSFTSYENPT
FGR, sequence (P09769 whole entry): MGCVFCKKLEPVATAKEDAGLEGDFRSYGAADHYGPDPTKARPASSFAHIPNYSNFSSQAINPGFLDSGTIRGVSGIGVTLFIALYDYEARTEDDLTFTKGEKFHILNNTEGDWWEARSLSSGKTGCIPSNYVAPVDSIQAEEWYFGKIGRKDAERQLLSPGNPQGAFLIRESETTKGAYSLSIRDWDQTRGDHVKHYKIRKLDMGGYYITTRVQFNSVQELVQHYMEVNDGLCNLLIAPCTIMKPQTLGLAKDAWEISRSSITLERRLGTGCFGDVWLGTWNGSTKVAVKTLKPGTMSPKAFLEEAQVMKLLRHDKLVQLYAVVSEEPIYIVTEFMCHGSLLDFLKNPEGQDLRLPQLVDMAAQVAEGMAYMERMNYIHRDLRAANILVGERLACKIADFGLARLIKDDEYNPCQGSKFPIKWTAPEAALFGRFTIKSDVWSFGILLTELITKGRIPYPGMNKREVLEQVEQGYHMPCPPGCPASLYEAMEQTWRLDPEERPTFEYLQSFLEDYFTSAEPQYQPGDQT
FYN-Y531F, sequence (P06241 whole entry Y531F): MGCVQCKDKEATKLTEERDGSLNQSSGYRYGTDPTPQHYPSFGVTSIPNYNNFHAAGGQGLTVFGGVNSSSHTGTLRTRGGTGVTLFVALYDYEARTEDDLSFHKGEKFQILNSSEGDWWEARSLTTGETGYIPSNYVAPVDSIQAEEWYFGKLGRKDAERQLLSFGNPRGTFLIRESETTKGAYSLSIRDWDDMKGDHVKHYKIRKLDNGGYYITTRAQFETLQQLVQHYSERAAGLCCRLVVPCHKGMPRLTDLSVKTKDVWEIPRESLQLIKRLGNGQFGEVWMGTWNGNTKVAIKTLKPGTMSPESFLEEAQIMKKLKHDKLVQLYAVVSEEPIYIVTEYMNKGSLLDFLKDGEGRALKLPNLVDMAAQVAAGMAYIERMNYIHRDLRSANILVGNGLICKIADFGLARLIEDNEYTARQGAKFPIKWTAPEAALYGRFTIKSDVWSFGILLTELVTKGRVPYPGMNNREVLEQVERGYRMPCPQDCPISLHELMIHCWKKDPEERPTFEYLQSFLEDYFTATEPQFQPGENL
LYN, sequence (P07948 whole entry): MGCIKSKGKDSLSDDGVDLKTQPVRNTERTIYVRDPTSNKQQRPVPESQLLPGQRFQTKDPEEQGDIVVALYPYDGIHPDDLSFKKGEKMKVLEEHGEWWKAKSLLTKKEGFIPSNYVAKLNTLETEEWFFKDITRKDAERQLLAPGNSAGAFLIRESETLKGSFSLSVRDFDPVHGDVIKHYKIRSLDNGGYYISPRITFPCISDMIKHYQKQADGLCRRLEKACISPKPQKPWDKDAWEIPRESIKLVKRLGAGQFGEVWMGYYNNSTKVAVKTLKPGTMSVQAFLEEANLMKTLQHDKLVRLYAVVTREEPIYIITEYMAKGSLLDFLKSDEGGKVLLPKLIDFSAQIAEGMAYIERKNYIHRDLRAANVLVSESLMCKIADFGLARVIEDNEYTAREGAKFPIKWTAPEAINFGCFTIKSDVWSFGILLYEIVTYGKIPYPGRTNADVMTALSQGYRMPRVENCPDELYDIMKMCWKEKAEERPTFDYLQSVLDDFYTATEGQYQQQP

Row | IC50 [1] [nM] | IC50 [2] [nM] | IC50 [3] [nM] | IC50 [4] [nM] | IC50 [5] [nM] | IC50 [6] [nM] | IC50 [7] [nM] | IC50 [8] [nM] | IC50 [9] [nM] | IC50 [10] [nM] | IC50 [11] [nM] | IC50 [12] [nM] | IC50 [13] [nM] | IC50 [14] [nM] | IC50 [15] [nM] | IC50 [16] [nM] | IC50 [17] [nM] | Structure (SMILES)
1 | 5 to 99 | < 5 | < 5 | 100 to 999 | 5 to 99 | < 5 | 5 to 99 | 5 to 99 | < 5 | 100 to 999 | 5 to 99 | < 5 | < 5 | 100 to 999 | 1000 to 10000 | < 5 | 1000 to 10000 | Nc1ncnc2c1c(-c1ccc(Oc3ccccc3)cc1)nn2C[C@@H]1SSC[C@H]1O [43 A.]
2 | 5 to 99 | < 5 | 5 to 99 | 100 to 999 | 100 to 999 | < 5 | 5 to 99 | 5 to 99 | < 5 | 5 to 99 | 100 to 999 | < 5 | < 5 | – | – | < 5 | 100 to 999 | Nc1ncnc2c1c(-c1ccc(Oc3ccccc3)cc1)nn2C[C@H]1SSC[C@@H]1O [43 B.]
3 | 5 to 99 | 5 to 99 | 5 to 99 | 100 to 999 | 5 to 99 | 5 to 99 | 100 to 999 | 5 to 99 | 5 to 99 | 100 to 999 | 5 to 99 | < 5 | 5 to 99 | 1000 to 10000 | 1000 to 10000 | – | 1000 to 10000 | Nc1ncnc2c1c(-c1ccc(Oc3ccccc3)cc1)nn2C[C@@H]1SSC[C@@H]1O [46 A.]
4 | 5 to 99 | < 5 | < 5 | 100 to 999 | 5 to 99 | 5 to 99 | 5 to 99 | 5 to 99 | < 5 | 5 to 99 | 5 to 99 | < 5 | < 5 | 100 to 999 | 1000 to 10000 | < 5 | 1000 to 10000 | Nc1ncnc2c1c(-c1ccc(Oc3ccccc3)cc1)nn2C[C@H]1SSC[C@H]1O [46 B.]
